Key:
[1] = test system: Aptamer 1 (Apt1) (RNA, aptamer) CCAUGUAAGCGCGGUACUCUUACGUGA; test: electrochemical impedance (EIS); conditions: 0.1 M KCl, 3 mM MgCl2; 100 µM; response about 15 times lower than with NH4+
[2] = test system: Aptamer 2 (Apt2) (RNA, aptamer) UCGCGUCUAGCCCAUUGAUAGGCCCGA; test: electrochemical impedance (EIS); conditions: 0.1 M KCl, 3 mM MgCl2; 100 µM; response about 15 times lower than with NH4+
[3] = test system: Aptamer 3 (Apt3) (RNA, aptamer) UCCACGUGGUGCCAUACUCCGGCGUGG; test: electrochemical impedance (EIS); conditions: 0.1 M KCl, 3 mM MgCl2; 100 µM; response about 15 times lower than with NH4+
[4] = test system: Control (random sequence) (RNA, other) CUGAAGGCAGUCCGGUGCCCGGCCGGG; test: electrochemical impedance (EIS); conditions: 0.1 M KCl, 3 mM MgCl2; PBS, pH about 7, 15 min incubation; tested up to 500 mM
[5] = test system: Aptamer 1 (Apt1) (RNA, aptamer) CCAUGUAAGCGCGGUACUCUUACGUGA; test: electrochemical impedance (EIS), Langmuir-Hill fit; conditions: 0.1 M KCl, 3 mM MgCl2; PBS, pH about 7, 1 mM [Fe(CN)6]3-/4-, 15 min incubation
[6] = test system: Aptamer 2 (Apt2) (RNA, aptamer) UCGCGUCUAGCCCAUUGAUAGGCCCGA; test: electrochemical impedance (EIS), Langmuir-Hill fit; conditions: 0.1 M KCl, 3 mM MgCl2; PBS, pH about 7, 1 mM [Fe(CN)6]3-/4-, 15 min incubation
[7] = test system: Aptamer 3 (Apt3) (RNA, aptamer) UCCACGUGGUGCCAUACUCCGGCGUGG; test: electrochemical impedance (EIS), Langmuir-Hill fit; conditions: 0.1 M KCl, 3 mM MgCl2; PBS, pH about 7, 1 mM [Fe(CN)6]3-/4-, 15 min incubation
[8] = test system: Aptamer 4 (Apt4) (RNA, aptamer) CCUCUCAGGCUUGUACUGCCACGAGGA; test: electrochemical impedance (EIS), Langmuir-Hill fit; conditions: 0.1 M KCl, 3 mM MgCl2; PBS, pH about 7, 1 mM [Fe(CN)6]3-/4-, 15 min incubation; decimal comma as printed
[9] = test system: Aptamer 5 (Apt5) (RNA, aptamer) GCCCUGGGCCGCUCAUUCCCUCUGGCU; test: electrochemical impedance (EIS), Langmuir-Hill fit; conditions: 0.1 M KCl, 3 mM MgCl2; PBS, pH about 7, 1 mM [Fe(CN)6]3-/4-, 15 min incubation

binding [1]	binding [2]	binding [3]	binding [4]	Kd [5]	Kd [6]	Kd [7]	Kd [8]	Kd [9]	SMILES
weak	weak	weak	–	–	–	–	–	–	CNC
–	–	–	no	36.59 mM	16.11 mM	131 mM	6,6 mM	50 mM	N
weak	weak	weak	–	–	–	–	–	–	CN(C)C

From publication PMC9405846 (2022)
